{"source": "patent US10258658B2", "about": "“Compositions and methods for improved muscle metabolism” (Naturex SA, priority 2015, dated 2019)", "key": {"C2C12 myotubes [1]": {"system": "C2C12 myotubes", "assay": "Protein synthesis (tritiated leucine incorporation) in C2C12 myotubes", "format": "cell-based, mice", "conditions": "100 ng/mL", "method": "For the protein synthesis assay, growing cells were harvested and plated at a density of 30 000 cells per well in a 24 well plate. Cells were grown for 48 h in 5% CO2 at 37° C. After cells reached 80% confluence, the medium was replaced with differentiating medium (DMEM+2% FBS). After 5 days, myoblasts were fused into multinucleated myotubes. Protein synthesis was determined by measuring the incorporation of the tritiated amino acid leucine. Briefly, 1 h prior leucine challenge, cells were incubated in amino acid free-medium. Then cells were incubated for 2 h30 in the presence of: radiolabelled leucine 5 μCi/mL and IGF1 100 ng/mL or plant extract in the presence of normal (0.8 mM) or low (0.08 mM) concentration of amino acids and with DMSO 0.002%\nFive different preparations of Rhaponticum extract at three concentrations were incubated for 2 h30 in the presence of differentiated C2C12 myotubes and tritiated leucine (5 μCi). At the end of the incubation cells were lysed, total soluble proteins were quantified and level of tritiated leucine incorporated into cells was counted. Mean±SEM. *p<0.05; **p<0.01; ***p<0.001 vs control value.\nFor this study, C2C12 cells were obtained as described in EXAMPLE 12. Protein synthesis assay was performed as described in EXAMPLE 13, except that radiolabelled leucine 5 μCi/mL and IGF1 100 ng/mL, F0 extract at 1, 5 and 10 μg/ml or Rhodiola extract at 10, 104 and 417 μg/ml in the presence of normal (0.8 mM) concentration of amino acids and with DMSO 0.005% were used.\nFor this study, C2C12 cells were obtained as described in EXAMPLE 12. Protein synthesis assay was performed as described in EXAMPLE 13, except that radiolabelled leucine 5 μCi/mL and IGF1 100 ng/mL, F0 extract at 1 and 10 μg/ml, or Rhodiola extract at 1 and 10 μg/ml or combination of F0 with Rhodiola at different concentrations in the presence of normal (0.8 mM) concentration of amino acids and with DMSO 0.005% was used.\nThe C2C12 skeletal muscle cells were obtained as in EXAMPLE 12. The protein synthesis assay was performed as in EXAMPLE 13 and 14 except that radiolabelled leucine 5 μCi/mL and IGF1 100 ng/mL, F0 extract at 11.4 and 22.9 μg/ml, or F0 dry extract at 6.5 and 13 μg/ml or F1 extract at 13.4 and 26.7 μg/ml or F5′ extract at 1 and 1.9 μg/ml in the presence of normal (0.8 mM) concentration of amino acids and with DMSO 0.005%. At the end of the experiments supernatants were discarded and cells were lysed in 0.1N sodium hydroxide for 30 min. The cell soluble fraction-associated radioactivity was then counted and protein quantification was determined using the coloric Lowry method.\nEach condition is tested in n=6. IGF1 100 ng/ml is used as a positive control of the protein synthesis stimulation and signaling. Results of protein synthesis are expressed in cpm/μL/2.5 hrs and in % of untreated control condition (100%)."}, "atrogin gene expression [2]": {"system": "atrogin gene expression", "assay": "Atrogin gene expression in C2C12 myotubes (qPCR)", "format": "cell-based, mice", "conditions": "positive control in this experiment", "method": "(§1) For the gene expression assay, growing cells were harvested and plated at a density of 30 000 cells per well in a 24 well plate. Cells were grown for 48 h in 5% CO2 at 37° C. After cells reached 80% confluence, the medium was replaced with differentiating medium (DMEM+2% FBS). After 5 days, myoblasts were fused into multinucleated myotubes.\n(§2) Cells were treated with F0 extract at 1 and 10 μg/ml, or Rhodiola extract at 1 and 10 μg/ml or combination of F0 with Rhodiola at different concentrations, for 6 h. At the end of the experiment, C2C12 cells were lyzed in trizol solution and RNA was extracted and purified using the phenol/chloroform method. RNA amount after extraction was quantified by spectrophotometer (260 nm/280 nm/320 nm) and suspended at a final concentration of 1 μg/1 μL. […]\nCombination of Rhaponticum F0 and Rhodiola extracts at two different concentrations each were incubated for 6 h in the presence of differentiated C2C12 myotubes. At the end of the incubation cells were lysed and RNA was extracted, converted into cDNA to perform a quantitative PCR. […]"}, "atrogin gene expression [3]": {"system": "atrogin gene expression", "conditions": "24 h incubation, 10 ng/mL; literature (Latres, Stitt); cited from earlier work"}, "[4]": {"system": "Akt phosphorylation on threonine 308", "assay": "Akt phosphorylation on threonine 308 in C2C12 myotubes (ELISA)", "format": "cell-based, mice", "conditions": "100 ng/mL, 2 h", "method": "as §1, with “Growing” for “For the gene expression assay, growing”, “170” for “30”, “6” for “24”, “myotubes. 1 h before starting the experiment, cells were incubated in Krebs medium to deprived cells of amino acids.” for “myotubes.”\n(§3) Cells were treated with five preparations of Rhaponticum plant extract at 3 concentrations in the presence of normal (0.8 mM) or low (0.08 mM) concentration of amino acids and with DMSO 0.002% for 2 h.\n(§4) At the end of the experiment, cells were lysed in cell lysate buffer (100 μL per well) and centrifuged to isolate the soluble protein in supernatant. Proteins from this cellular assay were quantified using a colorimetric assay derived from LOWRY method. Therefore, 50 μg of total protein in 100 μL lysis buffer were transferred into microwell strips coated with pS6K1 or pAkt antibody and incubated 2 h at 37° C. […] Intensity of the yellow color was readable on a spectrophotometer at 450 nm and directly proportional to pS6K1 or Akt amount detected.\nResults of phosphorylated Akt is expressed in absorbance per μg of protein (Abs/μg protein) after 2 hrs incubation and in % of untreated control condition (100%). […]"}, "C2C12 myotubes [5]": {"system": "C2C12 myotubes", "conditions": "low or normal concentration of amino acids; literature (Kazi, Broussard); cited from earlier work"}, "[6]": {"system": "myostatin gene expression", "assay": "Myostatin gene expression in C2C12 myotubes (qPCR)", "format": "cell-based, mice", "method": "as §1, §2\nFIGS. 23a, 23b, 24a, and 24b: Effect of co-incubation of Rhaponticum F0 and Rhodiola extracts on myostatin gene expression in C2C12 myotubes. […] At the end of the incubation cells were lysed and RNA was extracted, converted into cDNA to perform a quantitative PCR. […]"}, "[7]": {"system": "S6K1 phosphorylation on threonine 389", "assay": "S6K1 phosphorylation on threonine 389 in C2C12 myotubes (ELISA)", "format": "cell-based, mice", "conditions": "LOW AMINO ACID (0.08 mM), Step 1; 100 ng/mL; 2 h; % of untreated control", "method": "as §1, with “Growing” for “For the gene expression assay, growing”, “170” for “30”, “6” for “24”, “myotubes. 1 h before starting the experiment, cells were incubated in Krebs medium to deprived cells of amino acids.” for “myotubes.”\nas §3, §4\nResults of phosphorylated T389 S6 kinase1 is expressed in absorbance per μg of protein (Abs/μg protein) after 2 hrs incubation and in % of untreated control condition (100%). […]"}}, "note": "Marks after values point to notes of the source that are not given here.", "data": [{"substance": "Insulin like growth factor-1 [IGF-1]", "values": [{"measurement": "protein synthesis", "setting": "C2C12 myotubes [1]; LOW AMINO ACID (0.08 mM), Step 1, 2 h30, % of untreated control", "value": 145, "unit": "%**"}, {"measurement": "induction of protein synthesis vs untreated control", "setting": "C2C12 myotubes [1]; step 1, low (0.08 mM) amino acids, DMSO 0.002%", "value": "+45%"}, {"measurement": "induction of protein synthesis vs untreated control", "setting": "C2C12 myotubes [1]; step 1, normal (0.8 mM) amino acids, DMSO 0.002%", "value": "+21%"}, {"measurement": "induction of protein synthesis vs untreated control", "setting": "C2C12 myotubes [1]; step 2a, normal (0.8 mM) amino acids, DMSO 0.005%", "value": "+27%"}, {"measurement": "induction of protein synthesis vs untreated control", "setting": "C2C12 myotubes [1]; step 3, normal (0.8 mM) amino acids, DMSO 0.005%", "value": "+25%"}, {"measurement": "change in atrogin gene expression vs control", "setting": "atrogin gene expression [2]", "value": "−59", "unit": "%"}, {"measurement": "inhibition of atrogin gene expression", "setting": "atrogin gene expression [3]", "value": "around 40%"}, {"measurement": "Akt phosphorylation activated by a factor", "setting": "[4]", "value": 1.6}, {"measurement": "increase in protein synthesis", "setting": "C2C12 myotubes [5]", "value": "20-50%"}, {"measurement": "inhibitory effect on myostatin gene expression", "setting": "[6]; internal data", "value": "20-40%"}, {"measurement": "change in myostatin gene expression vs control", "setting": "[6]; positive control in this experiment", "value": "−25", "unit": "%"}, {"measurement": "pS6K", "setting": "[7]", "value": 479, "unit": "%**"}]}]}
